From PubChem BioAssay AID330 (DTP/NCI, 2004)
Several values for one entry are separate records, joined by “and”; a condition that tells them apart may be missing. Identical values can stand only once. Inconclusive results and toxic doses are left out.

System: P388 leukemia ip, CD2F1 mice, survival T/C
Assay: NCI In Vivo Anticancer Drug Screen. Data for tumor model P388 Leukemia (intraperitoneal) in CD2F1 (CDF1) mice
Conditions: endpoint: median survival time, higher = longer survival
Outline: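 Mice carrying the transplanted tumor received test compound or vehicle. Survival was recorded in each group, and the value is the treated-group measurement divided by that of the vehicle-treated control group.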

[1] = dose: 200.0 mg/kg/injection, schedule: Q01DX009 (ip), vehicle: saline with Tween-80
[2] = dose: 12.5 mg/kg/injection, schedule: Q01DX009 (ip), vehicle: saline
[3] = dose: 50.0 mg/kg/injection, schedule: Q01DX005 (ip), vehicle: saline with Tween-80
[4] = dose: 50.0 mg/kg/injection, schedule: Q01DX009 (ip), vehicle: Klucel (hydroxypropylcellulose) (HPC)
[5] = dose: 100.0 mg/kg/injection, schedule: Q01DX009 (ip), vehicle: Klucel (hydroxypropylcellulose) (HPC)
[6] = dose: 100.0 mg/kg/injection, schedule: Q01DX009 (ip), vehicle: saline
[7] = dose: 50.0 mg/kg/injection, schedule: Q01DX005 (ip), vehicle: distilled water + Tween-80
[8] = dose: 100.0 mg/kg/injection, schedule: Q01DX005 (ip), vehicle: distilled water + Tween-80
[9] = dose: 200.0 mg/kg/injection, schedule: Q01DX005 (ip), vehicle: distilled water + Tween-80
[10] = dose: 50.0 mg/kg/injection, schedule: Q01DX009 (ip), vehicle: saline with Tween-80
[11] = dose: 100.0 mg/kg/injection, schedule: Q01DX005 (ip), vehicle: saline with Tween-80
[12] = dose: 200.0 mg/kg/injection, schedule: Q01DX005 (ip), vehicle: saline with Tween-80
[13] = dose: 12.5 mg/kg/injection, schedule: Q01DX009 (ip), vehicle: saline with Tween-80
[14] = dose: 25.0 mg/kg/injection, schedule: Q01DX009 (ip), vehicle: saline with Tween-80

Compound: Nc1ccc(S(=O)(=O)c2ccc(N)cc2)cc1
- T/C (dose: 6.25 mg/kg/injection, schedule: Q01DX005 (ip), vehicle: Klucel (hydroxypropylcellulose) (HPC)): 106 % of control
- T/C (dose: 12.5 mg/kg/injection, schedule: Q01DX005 (ip), vehicle: Klucel (hydroxypropylcellulose) (HPC)): 98 % of control
- T/C (dose: 25.0 mg/kg/injection, schedule: Q01DX005 (ip), vehicle: Klucel (hydroxypropylcellulose) (HPC)): 104 % of control
- T/C (dose: 50.0 mg/kg/injection, schedule: Q01DX005 (ip), vehicle: Klucel (hydroxypropylcellulose) (HPC)): 105 % of control
- T/C (dose: 100.0 mg/kg/injection, schedule: Q01DX005 (ip), vehicle: Klucel (hydroxypropylcellulose) (HPC)): 109 % of control
- T/C (dose: 150.0 mg/kg/injection, schedule: Q01DX009 (ip), vehicle: saline with Tween-80): 109 % of control and 93 % of control
- T/C [1]: 98 % of control and 105 % of control

Compound: COCCCNP(=S)(N1CC1)N1CC1
- T/C (dose: 3.0 mg/kg/injection, schedule: Q04DX003 (ip), vehicle: saline): 110 % of control
- T/C (dose: 6.0 mg/kg/injection, schedule: Q04DX003 (ip), vehicle: saline): 115 % of control
- T/C [2]: 170 % of control
- T/C (dose: 25.0 mg/kg/injection, schedule: Q04DX003 (ip), vehicle: saline with Tween-80): 186 % of control

Compound: CN(CCC1(C)C(=O)CCc2ccccc21)Cc1ccccc1 (stereo unspecified)
- T/C (dose: 12.5 mg/kg/injection, schedule: Q01DX005 (ip), vehicle: saline with Tween-80): 102 % of control
- T/C (dose: 25.0 mg/kg/injection, schedule: Q01DX005 (ip), vehicle: saline with Tween-80): 96 % of control
- T/C [3]: 100 % of control and 96 % of control

Compound: NC(=O)c1nn[nH]n1
- T/C [4]: 97 % of control
- T/C [5]: 100 % of control

Compound: Oc1ccc(CCl)c2cccnc12
- T/C [2]: 98 % of control
- T/C (dose: 25.0 mg/kg/injection, schedule: Q01DX009 (ip), vehicle: saline): 101 % of control
- T/C [6]: 150 % of control

Compound: COc1ccc2c(c1)CC[C@@H]1[C@@H]2CC[C@]2(C)/C(=N\O)CC[C@@H]12
- T/C (dose: 100.0 mg/kg/injection, schedule: Q04DX003 (ip), vehicle: saline with Tween-80): 90 % of control
- T/C (dose: 200.0 mg/kg/injection, schedule: Q04DX003 (ip), vehicle: saline with Tween-80): 90 % of control
- T/C (dose: 400.0 mg/kg/injection, schedule: Q04DX003 (ip), vehicle: saline with Tween-80): 100 % of control

Compound: CCOC(=O)COc1cc2c(cc1C(C)c1ccc(OC)c(OC)c1)OCO2 (stereo unspecified)
- T/C [7]: 90 % of control
- T/C [8]: 91 % of control
- T/C [9]: 86 % of control

Compound: COc1ccccc1/C=C/C(=O)c1ccccc1
- T/C [10]: 96 % of control
- T/C (dose: 100.0 mg/kg/injection, schedule: Q01DX009 (ip), vehicle: saline with Tween-80): 94 % of control
- T/C [1]: 96 % of control

Compound: CCCCCCCC(=O)NC1CC(O[C@H]2C[C@](O)(C(C)=O)Cc3c(O)c4c(c(O)c32)C(=O)c2c(OC)cccc2C4=O)OC(C)C1O (stereo partly specified)
- T/C (dose: 0.75 mg/kg/injection, schedule: Q01DX009 (ip), vehicle: other): 113 % of control
- T/C (dose: 2.0 mg/kg/injection, schedule: Q04DX003 (ip), vehicle: other): 107 % of control
- T/C (dose: 4.0 mg/kg/injection, schedule: Q04DX003 (ip), vehicle: other): 98 % of control
- T/C (dose: 8.0 mg/kg/injection, schedule: Q04DX003 (ip), vehicle: other): 102 % of control
- T/C (dose: 16.0 mg/kg/injection, schedule: Q04DX003 (ip), vehicle: other): 105 % of control
- T/C (dose: 32.0 mg/kg/injection, schedule: Q04DX003 (ip), vehicle: other): 116 % of control and 96 % of control
- T/C (dose: 50.0 mg/kg/injection, schedule: Q04DX003 (ip), vehicle: other): 118 % of control
- T/C (dose: 64.0 mg/kg/injection, schedule: Q04DX003 (ip), vehicle: other): 114 % of control
- T/C (dose: 100.0 mg/kg/injection, schedule: Q04DX003 (ip), vehicle: other): 105 % of control
- T/C (dose: 128.0 mg/kg/injection, schedule: Q04DX003 (ip), vehicle: other): 123 % of control
- T/C (dose: 256.0 mg/kg/injection, schedule: Q04DX003 (ip), vehicle: other): 123 % of control
- T/C (dose: 400.0 mg/kg/injection, schedule: Q04DX003 (ip), vehicle: other): 115 % of control

Compound: C=C[P+](c1ccccc1)(c1ccccc1)c1ccccc1
- T/C (dose: 0.37 mg/kg/injection, schedule: Q01DX009 (ip), vehicle: saline): 104 % of control
- T/C (dose: 0.75 mg/kg/injection, schedule: Q01DX009 (ip), vehicle: saline): 105 % of control
- T/C (dose: 1.5 mg/kg/injection, schedule: Q01DX009 (ip), vehicle: saline): 116 % of control

Compound: NC(=O)c1cn[nH]c1N
- T/C (dose: 25.0 mg/kg/injection, schedule: Q01DX009 (ip), vehicle: suspension in saline): 118 % of control
- T/C (dose: 50.0 mg/kg/injection, schedule: Q01DX009 (ip), vehicle: saline): 90 % of control
- T/C (dose: 50.0 mg/kg/injection, schedule: Q01DX009 (ip), vehicle: suspension in saline): 97 % of control
- T/C [6]: 90 % of control
- T/C (dose: 100.0 mg/kg/injection, schedule: Q01DX009 (ip), vehicle: suspension in saline): 104 % of control
- T/C (dose: 200.0 mg/kg/injection, schedule: Q01DX009 (ip), vehicle: saline): 87 % of control
- T/C (dose: 200.0 mg/kg/injection, schedule: Q01DX009 (ip), vehicle: suspension in saline): 94 % of control

Compound: CN1C(c2ccccc2)CC(=O)C(N)C1c1ccccc1 (stereo unspecified)
- T/C [7]: 92 % of control
- T/C [8]: 90 % of control
- T/C [9]: 92 % of control

Compound: Cc1ccc(-n2c(=S)n(-c3ccccc3C)c3nc4ccccc4nc2/c3=N\Nc2ccc(Cl)cc2)cc1
- T/C [3]: 92 % of control
- T/C [11]: 88 % of control
- T/C [12]: 95 % of control

Compound: O=C1NC(=O)C2(CC3CCCC(C2)N3CCO)N1 (stereo unspecified)
- T/C (dose: 50.0 mg/kg/injection, schedule: Q01DX009 (ip), vehicle: water): 101 % of control
- T/C (dose: 100.0 mg/kg/injection, schedule: Q01DX009 (ip), vehicle: water): 101 % of control
- T/C (dose: 200.0 mg/kg/injection, schedule: Q01DX009 (ip), vehicle: water): 100 % of control

Compound: Cc1[nH]c2c(ccc3c2ccc2c(=O)c(C)c(C)[nH]c23)c(=O)c1C
- T/C [3]: 95 % of control
- T/C [11]: 96 % of control
- T/C [12]: 95 % of control

Compound: COc1cc2cnc(-c3ccccc3)cc2cc1OC
- T/C (dose: 100.0 mg/kg/injection, schedule: Q04DX003 (ip), vehicle: suspension in saline): 101 % of control
- T/C (dose: 200.0 mg/kg/injection, schedule: Q04DX003 (ip), vehicle: suspension in saline): 93 % of control
- T/C (dose: 400.0 mg/kg/injection, schedule: Q04DX003 (ip), vehicle: suspension in saline): 93 % of control

Compound: CCC1CN2CCc3cc(OC)c(OC)cc3C2CC12CO2 (stereo unspecified)
- T/C [13]: 114 % of control
- T/C [14]: 108 % of control
- T/C [10]: 96 % of control

Compound: O=C(O)C1(N(CCO)CCO)CCCC1
- T/C (dose: 50.0 mg/kg/injection, schedule: Q01DX005 (ip), vehicle: saline): 104 % of control
- T/C (dose: 100.0 mg/kg/injection, schedule: Q01DX005 (ip), vehicle: saline): 100 % of control
- T/C (dose: 200.0 mg/kg/injection, schedule: Q01DX005 (ip), vehicle: saline): 106 % of control

Compound: CCN(CC)Cc1cc2[nH]c3c4ccc(Cl)cc4ncc3c2cc1OC
- T/C (dose: 6.25 mg/kg/injection, schedule: Q01DX009 (ip), vehicle: saline with Tween-80): 101 % of control
- T/C [13]: 100 % of control
- T/C [14]: 98 % of control
- T/C [3]: 112 % of control
- T/C [10]: 87 % of control and 94 % of control
- T/C [11]: 102 % of control

Compound: CCCCCCCCCOCC(O)CCl (stereo unspecified)
- T/C [4]: 97 % of control
- T/C [5]: 98 % of control
- T/C (dose: 200.0 mg/kg/injection, schedule: Q01DX009 (ip), vehicle: Klucel (hydroxypropylcellulose) (HPC)): 93 % of control

Compound: Cc1ccc(-c2c([N+](=O)[O-])c3ccccn3c2[N+](=O)[O-])cc1
- T/C (dose: 60.0 mg/kg/injection, schedule: Q01DX005 (ip), vehicle: saline with Tween-80): 92 % of control
- T/C (dose: 120.0 mg/kg/injection, schedule: Q01DX005 (ip), vehicle: saline with Tween-80): 90 % of control
- T/C (dose: 240.0 mg/kg/injection, schedule: Q01DX005 (ip), vehicle: saline with Tween-80): 99 % of control

Compound: CC1(C)OC2(C)CCC1C1C2N1C(=O)Nc1cccc2ccccc12 (stereo unspecified)
- T/C [3]: 99 % of control
- T/C [11]: 97 % of control
- T/C [12]: 93 % of control
